According to patent US20170333591A9, “ABSORBENT ARTICLE COMPRISING MALODOR REDUCTION COMPOSITIONS” (The Procter & Gamble Company, priority 2014, published 2017):

Assay: Log of liquid dish neat product liquid-air partition coefficient
Type: physicochemical
Details: for Log of liquid dish neat product liquid-air partition coefficient (Comment Code K/L): code letter within the Comment Code cell

Row | SMILES | Comment Code: Log of liquid dish neat product liquid-air partition coefficient | Log of liquid dish neat product liquid-air partition coefficient (Comment Code K/L)
1 | CC(=O)OC1CC2C3C=CCC3C1C2(C)C (stereo not drawn) [Material 360] | K (Log of liquid dish neat product liquid-air partition coefficient greater than or equal to 7) | K (Log of liquid dish neat product liquid-air partition coefficient greater than or equal to 7)
2 | CCc1ccc(CC(C)(C)C#N)cc1 [Material 361] |  | K (Log of liquid dish neat product liquid-air partition coefficient greater than or equal to 7)
3 | CCOC(C)OC1CCCCCCCCCCC1 (stereo not drawn) [Material 363] |  | K (Log of liquid dish neat product liquid-air partition coefficient greater than or equal to 7)
4 | CC(=O)OCC=C(C)CCC=C(C)CCC=C(C)C [Material 368] |  | K (Log of liquid dish neat product liquid-air partition coefficient greater than or equal to 7)
5 | CC(C)=CCCC(C)=CCCC(C)=CCO [Material 369] |  | K (Log of liquid dish neat product liquid-air partition coefficient greater than or equal to 7)
6 | O=C1CCCCCCCCCCCCCCO1 [Material 370] |  | K (Log of liquid dish neat product liquid-air partition coefficient greater than or equal to 7)
7 | O=C1CCC=CCCCCCCCCCC1 [Material 371] |  | K (Log of liquid dish neat product liquid-air partition coefficient greater than or equal to 7)
8 | O=C1CCC=CCCCCCCCCCC1 [Material 372] |  | K (Log of liquid dish neat product liquid-air partition coefficient greater than or equal to 7)
9 | C=CCc1ccc(OC(C)=O)c(OC)c1 [Material 374] |  | K (Log of liquid dish neat product liquid-air partition coefficient greater than or equal to 7)
10 | C=CCc1ccc(O)c(OC)c1 [Material 375] |  | K (Log of liquid dish neat product liquid-air partition coefficient greater than or equal to 7)
11 | CCOC(=O)C1OC1(C)c1ccccc1 (stereo not drawn) [Material 377] |  | K (Log of liquid dish neat product liquid-air partition coefficient greater than or equal to 7)
12 | C=CCCCCCCCCC(=O)OCC [Material 381] |  | K (Log of liquid dish neat product liquid-air partition coefficient greater than or equal to 7)
13 | CCCCCCCCCCCCCC(=O)OCC [Material 388] |  | K (Log of liquid dish neat product liquid-air partition coefficient greater than or equal to 7)
14 | C=CC(O)(CC)CCC=C(C)C (stereo not drawn) [Material 390] |  | K (Log of liquid dish neat product liquid-air partition coefficient greater than or equal to 7)
15 | CCCCCCCCCCCC(=O)OCC [Material 391] |  | K (Log of liquid dish neat product liquid-air partition coefficient greater than or equal to 7)
16 | CCCCCCCCCC(=O)OCC [Material 397] |  | K (Log of liquid dish neat product liquid-air partition coefficient greater than or equal to 7)
17 | CCOC(=O)C=Cc1ccccc1 [Material 400] | K (Log of liquid dish neat product liquid-air partition coefficient greater than or equal to 7) | 
18 | CCC1=CCCC(C)(C)C12C=CC(C)O2 (stereo not drawn) [Material 413] |  | K (Log of liquid dish neat product liquid-air partition coefficient greater than or equal to 7)
19 | C=CC1(C)CCC(C(C)(C)O)CC1C(=C)C (stereo not drawn) [Material 414] |  | K (Log of liquid dish neat product liquid-air partition coefficient greater than or equal to 7)

Row | SMILES | Comment Code: Log of liquid dish neat product liquid-air partition coefficient | Log of liquid dish neat product liquid-air partition coefficient (Comment Code K/L)
20 | CCOC(C)OCCc1ccccc1 (stereo not drawn) [Material 415] |  | K (Log of liquid dish neat product liquid-air partition coefficient greater than or equal to 7)
21 | CC1=CCC(C=CC(C)C(C)O)C1(C)C (stereo not drawn) [Material 416] |  | K (Log of liquid dish neat product liquid-air partition coefficient greater than or equal to 7)
22 | O=CCCC=C1CC2CC1C1CCCC21 (stereo not drawn) [Material 418] |  | K (Log of liquid dish neat product liquid-air partition coefficient greater than or equal to 7)
23 | CC1CCOC(c2ccccc2)C1 (stereo not drawn) [Material 420] | K (Log of liquid dish neat product liquid-air partition coefficient greater than or equal to 7) | 
24 | CCCCCCCCCCCC(OC)OC [Material 421] |  | K (Log of liquid dish neat product liquid-air partition coefficient greater than or equal to 7)
25 | c1ccc(Oc2ccccc2)cc1 [Material 428] |  | K (Log of liquid dish neat product liquid-air partition coefficient greater than or equal to 7)
26 | c1ccc(Cc2ccccc2)cc1 [Material 429] |  | K (Log of liquid dish neat product liquid-air partition coefficient greater than or equal to 7)
27 | CCCC(=O)OC(C)(C)Cc1ccccc1 [Material 432] |  | K (Log of liquid dish neat product liquid-air partition coefficient greater than or equal to 7)
28 | C=CC(C)CCCC(C)(C)O (stereo not drawn) [Material 437] | K (Log of liquid dish neat product liquid-air partition coefficient greater than or equal to 7) | 
29 | CCCc1ccc(O)c(OC)c1 [Material 440] | K (Log of liquid dish neat product liquid-air partition coefficient greater than or equal to 7) | 
30 | C=C(C)C1CCC(C)C(OC(C)=O)C1 (stereo not drawn) [Material 444] |  | K (Log of liquid dish neat product liquid-air partition coefficient greater than or equal to 7)
31 | CC(=O)CCC1C(C)=CCCC1(C)C (stereo not drawn) [Material 448] | K (Log of liquid dish neat product liquid-air partition coefficient greater than or equal to 7) | 
32 | CCCCCCC1C(=O)CCC1C(=O)OC (stereo not drawn) [Material 450] |  | K (Log of liquid dish neat product liquid-air partition coefficient greater than or equal to 7)
33 | c1ccc(COCc2ccccc2)cc1 [Material 454] | K (Log of liquid dish neat product liquid-air partition coefficient greater than or equal to 7) | 
34 | c1ccc(CCc2ccccc2)cc1 [Material 457] |  | K (Log of liquid dish neat product liquid-air partition coefficient greater than or equal to 7)
35 | C=CC1(C)CCC(C(C)C)=CC1C(=C)C (stereo not drawn) [Material 461] |  | K (Log of liquid dish neat product liquid-air partition coefficient greater than or equal to 7)
36 | CCCCCCCC1CCCC(=O)O1 (stereo not drawn) [Material 463] |  | K (Log of liquid dish neat product liquid-air partition coefficient greater than or equal to 7)
37 | CC=CC(=O)C1C(C)C=CCC1(C)C (stereo not drawn) [Material 466] |  | K (Log of liquid dish neat product liquid-air partition coefficient greater than or equal to 7)
38 | C=CCCCCCCCCO [Material 470] |  | K (Log of liquid dish neat product liquid-air partition coefficient greater than or equal to 7)
